Assay results reported in ChEMBL document CHEMBL1158587, “Chloramultiols A-F, lindenane-type sesquiterpenoid dimers from Chloranthus multistachys” (J Nat Prod, 2010).

How the values were obtained:
Format in all cases: functional, cell-based
A549 = experiment: Cytotoxicity against human A549 cells by MTT assay
HL-60 = experiment: Cytotoxicity against human HL60 cells by MTT assay
PANC-1 = experiment: Cytotoxicity against human PANC1 cells by MTT assay
SMMC-7721 = experiment: Cytotoxicity against human SMMC7721 cells by MTT assay
SK-BR-3 = experiment: Cytotoxicity against human SKBR3 cells by MTT assay

Measured: IC50

COC(=O)[C@]1(C)CC2=C3C=C(C(=O)[C@H](O)[C@@]3(C)[C@@H]3C[C@H]23)[C@](C)(C(=O)OC)CC2=C3C=C1C(=O)[C@H](O)[C@@]3(C)[C@@H]1C[C@H]21 [Cycloshizukaol A]
> 10 µM: all assays above

COC(=O)/C(C)=C1\C(=O)[C@H](O)[C@]2(C)C3=C([C@H]4C[C@H]42)[C@H](O)[C@@H]2[C@]4(OC(=O)C5=C4C[C@H]4[C@](O)(COC(=O)/C(C)=C/COC(=O)CCC(=O)OC5)[C@H]5C[C@H]5[C@]24C)[C@H]31 [CHLORAMULTIOL A]
> 10 µM: all assays above

CC1=C2C3=C4[C@](C)([C@@H]5C[C@@H]5[C@@]4(O)C[C@@H]4[C@]35OC(=O)C(CO)=C5C[C@H]3[C@](O)(CO)[C@H]5C[C@H]5[C@]43C)[C@@H](O)[C@@]2(O)OC1=O [CHLORAMULTIOL B]
> 10 µM: all assays above

CC1=C2C3=C4[C@](C)([C@@H]5C[C@@H]5[C@@]4(O)C[C@@H]4[C@]35OC(=O)C3=C5C[C@H]5[C@](O)(COC(=O)/C(C)=C/COC(=O)CCC(=O)OC3)[C@H]3C[C@H]3[C@]45C)[C@@H](O)[C@@]2(O)OC1=O [CHLORAMULTILIDE C]
> 10 µM: all assays above

C/C=C(\C)C(=O)OC[C@]1(O)[C@H]2C[C@H]2[C@]2(C)[C@@H]3C[C@@]4(O)C5=C(C6=C(C)C(=O)O[C@]6(O)[C@H](O)[C@@]5(C)[C@@H]5C[C@@H]54)[C@@]34OC(=O)C(CO)=C4C[C@@H]12 [CHLORAMULTILIDE D]
> 10 µM: all assays above

C/C=C(\C)C(=O)OC[C@]1(O)[C@H]2C[C@H]2[C@]2(C)[C@@H]3C[C@@]4(O)C5=C(C6=C(C)C(=O)O[C@]6(OC)[C@H](O)[C@@]5(C)[C@@H]5C[C@@H]54)[C@@]34OC(=O)C(CO)=C4C[C@@H]12 [CHLORAMULTIOL C]
> 10 µM: all assays above

COC(=O)/C(C)=C1/C(=O)[C@H](O)[C@]2(C)C3=C1[C@]14OC(=O)C(COC(C)=O)=C1C[C@H]1C[C@H]5C[C@H]5[C@]1(C)[C@@H]4C[C@]3(O)[C@H]1C[C@H]12 [SHIZUKAOL D]
> 10 µM: all assays above

CC1=C2C3=C4[C@@](C)(C(=O)[C@@]2(O)OC1=O)[C@@H]1C[C@@H]1[C@@]4(O)C[C@@H]1[C@]32OC(=O)C3=C2C[C@H]2[C@](O)(COC(=O)/C(C)=C/COC(=O)CCC(=O)OC3)[C@H]3C[C@H]3[C@]12C [SPICACHLORANTIN B]
> 10 µM: all assays above

CC(=O)OC[C@@H]1[C@H]2C[C@H]2[C@]2(C)[C@@H]3C[C@@]4(O)C5=C(C6=C(C)C(=O)O[C@]6(O)[C@H](O)[C@@]5(C)[C@@H]5C[C@@H]54)[C@@]34OC(=O)C(CO)=C4C[C@@H]12 [CHLORAMULTIOL E]
> 10 µM: all assays above

C/C=C(\C)C(=O)OCC1=C2C[C@H]3[C@H](O)[C@H]4C[C@H]4[C@]3(C)[C@@H]3C[C@@]4(O)C5=C(/C(=C(/C)C(=O)OC)C(=O)[C@H](O)[C@@]5(C)[C@@H]5C[C@@H]54)[C@]23OC1=O [SHIZUKAOL C]
> 10 µM: all assays above

C/C=C(\C)C(=O)OC[C@]1(O)[C@H]2C[C@H]2[C@]2(C)[C@@H]3C[C@@]4(O)C5=C(C6=C(C)C(=O)O[C@]6(O)C(=O)[C@@]5(C)[C@@H]5C[C@@H]54)[C@@]34OC(=O)C(CO)=C4C[C@@H]12 [CHLORAMULTIOL D]
> 10 µM: all assays above

CO[C@]12OC(=O)C(C)=C1C1=C3C(=C[C@@H]4[C@]15OC(=O)C1=C5C[C@H]5[C@](O)(COC(=O)/C(C)=C/COC(=O)CCC(=O)OC1)[C@H]1C[C@H]1[C@]45C)[C@H]1C[C@H]1[C@]3(C)[C@H]2O [CHLORAMULTIOL F]
> 10 µM: all assays above
